pIC50: −log10 of the molar value.
What was measured:
MCF7 = assay: Antiproliferative activity against human MCF7 cells after 48 hrs by MTT assay; type: functional, cell-based; settings: MCF7, 48 h
A549 = assay: Antiproliferative activity against human A549 cells after 48 hrs by MTT assay; type: functional, cell-based; settings: A549, 48 h

pIC50 (MCF7)	pIC50 (A549)	Compound
5.72	5.52	COc1ccc(C2C3CCc4ccc(OC)cc4C3=NN2c2nc3nc4ccccc4nc3s2)cc1 (centres undefined)
5.63	5.37	C#Cc1cccc(Nc2ncnc3cc(OCCOC)c(OCCOC)cc23)c1 [ERLOTINIB]

— ChEMBL document CHEMBL4330061, “Antitumoral activity of quinoxaline derivatives: A systematic review” (Eur J Med Chem, 2019)
